Tests used:
DNA binding by NFAT1 = target: T1, DNA binding by NFAT1 (Homo sapiens, UniProt Q13469); experiment: Native EMSA of the effect on DNA binding by NFAT1; type: biochemical; details: FIG. 12C; increasing concentrations; probes with UV 365 nm 15 min; compared to control lane 3
T1 construct: human NFAT1 protein (residue 399-676, NFAT1-DBD)
T1 sequence (Q13469 399-676): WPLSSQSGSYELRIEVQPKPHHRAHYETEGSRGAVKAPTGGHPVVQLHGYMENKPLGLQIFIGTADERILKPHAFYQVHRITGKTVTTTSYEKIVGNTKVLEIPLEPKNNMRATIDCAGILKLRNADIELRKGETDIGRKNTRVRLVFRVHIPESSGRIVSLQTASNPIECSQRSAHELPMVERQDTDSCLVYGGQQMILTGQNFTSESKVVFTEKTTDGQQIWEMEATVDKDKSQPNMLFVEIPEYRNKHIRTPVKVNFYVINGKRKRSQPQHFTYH
Method: All binding reactions contain 10 μM 27 mer dsDNA (5′6-FAM labeled) with a NFAT-binding site, and various combinations of NFAT1 protein (14 μM), FA (1% v/v), 4AMT-LC-SDA (20 μM), with or without UV illumination (365 nm, LED, 30 Watt, sample distance 2 cm, exposure time 15 min at 4 degree C.). 10 μl of the binding reaction is run on a 10% PAGE 0.5×TBE gel. The same gel was visualized by FAM fluorescence for DNA (top) and by Coomassie blue stain for protein (bottom). The higher smearing bands in lane 3, 8, 9, and 10 are most likely non-specific protein complexes often seen when an excessive amount of protein is used to ensure all DNA is bound.
The binding reactions were performed in a buffer of 20 mM Hepes pH 7.6, 150 mM NaCl, 1 mM DTT, 12% glycerol. Typically protein and DNA are mixed to bind at room temperature for 30 min, followed by addition of BFPX probes for an additional 15 min and then UV illumination. In the case of FA treatment, the reaction time is 10 min at room temperature and then quenched by 250 mM glycine. When included (as indicated by a positive sign), the binding reaction contains 10 μM 27 mer dsDNA (Cy5-labeled) with a NFAT-binding site (the antigen receptor response element 2, ARRE2, from the IL-2 promoter, 5′-Cy5-[sequence]-3′ (SEQ ID NO: 2), the complementary strand is not labeled), 24 μM of the DNA binding domain (DBD) of human NFAT1 protein (residue 399-676, NFAT1-DBD). The UV illumination (as indicated by a positive sign) was carried out using a LED Chip (21.4 mm×21.4 mm, 365-370 nm, 30 Watt, sample distance 2 cm, exposure time 2-15 min at 4 degree C., here the exposure time is 15 min). Half of the binding reaction (7.5 μl) was run on a 10% PAGE 0.5×TBE gel and visualized by Cy5 fluorescence on DNA. The small amount of single stranded DNA is due to incomplete annealing. The higher smearing bands are most likely non-specific protein complexes. Neither of these experimental imperfections affected the main conclusion of this experiment because the double stranded-DNA bands and the specific NFAT-DNA complex bands (the middle sharp bands) are well defined and can be monitored without the interference of the other bands.
The presence of both DNA and protein in the same shifted band can be checked by the FAM fluorescence signal (top) and Coomassie stain (bottom), respectively (free NFAT is positively charged and not observable under the EMSA condition).

MEF2A/DNA complex = target: T2, MEF2A/DNA complex (Homo sapiens, UniProt Q02078); experiment: In vitro photo-crosslinking of assembled MEF2/DNA complex, read on denaturing SDS/urea gel or agarose gel; type: biochemical; details: for formation of covalent MEF2/DNA crosslinked complex: probe + UV, denaturing gel
T2 construct: human MEF2A DBD (residues 2-95); made in house
T2 sequence (Q02078 2-95): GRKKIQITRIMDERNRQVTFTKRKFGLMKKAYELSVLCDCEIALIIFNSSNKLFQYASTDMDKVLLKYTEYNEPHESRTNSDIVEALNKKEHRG
Text: In vitro assays have confirmed the success and the efficiency of the demo probe (AMT-LC-SDA) in crosslinking double strand DNA of various contents and DNA-binding protein human myocyte enhancer factor 2A (MEF2A) (1-95 aa) (FIG. 5C-FIG. 5E). The solid crosslinking is confirmed for the probe with UV photo crosslinking conditions by denaturing or digestive approaches such as running with 8.3 M urea gel, SDS gel, combined with sample with overnight digestion of proteinase K at 65 Celsius and denatured at high temperature of 95 Celsius with SDS loading dye. […] Under these harsh evaluation conditions, the protein got digested on the crosslinking complex thoroughly, yet the remaining crosslinked amino acids residuals still have made the DNA to be in a larger size and shifted clearly compared to other controls, which is indicated by the bold shaped arrow. Agarose gel was also used for its bigger pore size to estimate the crosslinking efficiency (UV 2 hrs), estimated by the amount of the left free DNA, our probe has reached around 30-60% efficiency (FIG. 5E), which is much higher than the UV-initiated protein DNA crosslinking without the use of a probe (10-20%) as reported in Nature Communications, volume 11, Article number: 3019 (2020). […] This further supports the idea of applying this probe for replacement of formaldehyde, it crosslinks the protein only within the proximity of nucleic acids, thereby largely reducing the random protein-protein crosslinking noise and helps to preserve the native state of protein epitopes.
The BFPX probe 4AMT-LC-SDA was synthesized with good yield by the NHS-amine chemistry using psoralen and diazirine derivatives (FIG. 5A, FIG. 5B). To test its photo crosslinking ability, human transcription factor MEF2A (the MADS-box/MEF2 domain) and double strand DNA containing a MEF2 binding site were used. We first used electrophoresis mobility shift assay (EMSA) to validate the activity of the purified recombinant MEF2A DNA-binding domain. After finding out the optimal protein to DNA ratio, the in vitro assembled MEF2/DNA complex was then subject to photocrosslinking in the presence or absence of the 4AMT-LC-SDA probe with or without UV illumination. Multiple other control experiments were carried out in parallel to test the specificity of photocrosslinking between the DNA and MEF2. Specifically, parameters such as protein/DNA amounts (1:[…]), ratio, UV time (10 m to 4 hrs), wavelength (320 to 360 nm), LV source (mercury long lamp, LED) and their distance to the reaction mixture have been optimized along the course. The MEF2 Protein and DNA were incubated first to mimic an in vivo binding mode and stoichiometry, and then the mixture was incubated with our 4AMT-LC-SDA probe to undergo UV illumination. The results were evaluated by running denaturing gels (SDS in FIG. 5D, or Urea in FIG. 5C) against the high temperature denatured reaction mixtures and checking the respective protein (silver stain) or DNA (FAM label) signals. To further rule out any other possible false positiveness during loading, proteinase K digestion was applied to all the samples including the negative controls with SDS at 65 degrees.

C#CCCC1(CCNC(=O)CCCOc2c3occc3cc3ccc(=O)oc23)N=N1 [SPB-AAD, N-(2-(3-(but-3-yn-1-yl)-3H-diazirin-3-yl)ethyl)-4-((7-oxo-7H-furo[3,2-g]chromen-9-yl)oxy)butanamide]
effect on the binding of NFAT1 to DNA (DNA binding by NFAT1): little or no effect | low probe concentration at which a significant amount of crosslinked protein complex was observed (MEF2A/DNA complex; MEF2/DNA, FIG. 7 lane 7, UV 365 nm): 0.125 µM | crosslinking efficiency (percentage of native protein-DNA complex being covalently crosslinked) (MEF2A/DNA complex; MEF2/DNA, FIG. 7 lane 5 (12.5 μM probe) vs lanes 1-3, free DNA FAM signal, UV 365 nm): 80-90% | UV illumination time at which crosslinked complex was visible (MEF2A/DNA complex; MEF2/DNA, probe 100 μM): 3 s | UV illumination time at which crosslinking reached plateau (MEF2A/DNA complex; MEF2/DNA, probe 100 μM, plateau around 100 seconds and 5 min time points): around 100 seconds | formation of covalent MEF2/DNA crosslinked complex (MEF2A/DNA complex): formation of complexes that run as larger molecular species than both free protein and DNA

C#CCCC1(CCNC(=O)CCOCCOCCOCCOCCNC(=O)CCCOc2c3occc3cc3ccc(=O)oc23)N=N1 [SPB-PEG4-AAD, N-(2-(3-(but-3-yn-1-yl)-3H-diazirin-3-yl)ethyl)-1-(4-((7-oxo-7H-furo[3,2-g]chromen-9-yl)oxy)butanamido)-3,6,9,12-tetraoxapentadecan-15-amide]
effect on the binding of NFAT1 to DNA (DNA binding by NFAT1): little or no effect

C#CCCC1(CCNC(=O)CCOCCOCCOCCC(=O)NCCNC(=O)CCCOc2c3occc3cc3ccc(=O)oc23)N=N1 [SPB-PEG3-AAD]
crosslinking efficiency based on the DNA signal (MEF2A/DNA complex; MEF2/DNA, FIG. 8C lane 3 (10 μM probe) vs lane 1): more than 90% | formation of covalent MEF2/DNA crosslinked complex (MEF2A/DNA complex): highly efficient crosslinking

From patent US20250388597A1, “BIFUNCTIONAL PHOTOCROSSLINKING PROBES FOR COVALENT CAPTURE OF PROTEIN-NUCLEIC ACID COMPLEXES IN CELLS” (UNIVERSITY OF SOUTHERN CALIFORNIA, priority 2022, published 2025)
